From ChEMBL document CHEMBL4673239, “Discovery of Tyrosine Kinase 2 (TYK2) Inhibitor (PF-06826647) for the Treatment of Autoimmune Diseases” (J Med Chem, 2020)
In brackets after ≈: the same amount, converted by molar mass. Activity calls are given as the source filed them. The calls are words filed in the database; no cut-off is given here.

Tests used:
[1] = Dissociation constant, basic pKa of compound; type: physicochemical
[2] = Unbound drug level in imiquimod-induced mouse model of skin inflammation at 1 mg/kg, po qd; type: ADME, organism-based; details: in vivo
[3] = Unbound drug level in imiquimod-induced mouse model of skin inflammation at 10 mg/kg, po qd; type: ADME, organism-based; details: in vivo
[4] = Cmax in Sprague-Dawley rat at 3 mg/kg, po using SDD formulation; type: ADME, organism-based; design: route oral, dose 3 mg/kg; details: in vivo
[5] = Unbound drug level in imiquimod-induced mouse model of skin inflammation at 30 mg/kg, po qd; type: ADME, organism-based; details: in vivo
[6] = Bile excretion in rat; type: ADME; details: read-out: Drug excretion
[7] = Volume of distribution at steady state in Sprague-Dawley rat at 1 mg/kg, iv; type: ADME, organism-based; details: in vivo, read-out: Vdss
[8] = Protein binding in rat plasma; type: ADME, cell-free; details: read-out: PPB (converted)
[9] = Cmax in Sprague-Dawley rat at 30 mg/kg, po using SDD formulation; type: ADME, organism-based; design: route oral, dose 30 mg/kg; details: in vivo
[10] = Thermodynamic solubility of the compound at pH 7.4 using crystalline form of sample; type: physicochemical; details: read-out: Therm_solubility
Mus musculus [11] = test: Antiinflammatory activity in imiquimod-induced mouse model of skin inflammation assessed as reduction in IL12 stimulation at 30 mg/kg, po qd; type: functional; design: scale not given: the % may be the effect or the level left
physchem = details: octanol/water phosphate buffer, pH 7.4
Description: Octanol/water phosphate buffer partition coefficient, log D of compound at pH 7.4 by shake-flask method

[12] = Protein binding in human plasma; type: ADME, cell-free
Mus musculus [13] = test: Antiinflammatory activity in imiquimod-induced mouse model of skin inflammation assessed as reduction in ear swelling at 10 mg/kg, po qd relative to control; type: functional; design: scale not given: the % may be the effect or the level left
Mus musculus [14] = test: Antiinflammatory activity in imiquimod-induced mouse model of skin inflammation assessed as reduction in IL12 stimulation at 3 mg/kg, po qd; type: functional; design: scale not given: the % may be the effect or the level left
Mus musculus [15] = test: Antiinflammatory activity in imiquimod-induced mouse model of skin inflammation assessed as reduction in IL12 stimulation at 10 mg/kg, po qd; type: functional; design: scale not given: the % may be the effect or the level left
[16] = AUC infinity in Sprague-Dawley rat at 3 mg/kg, po using SDD formulation; type: ADME, organism-based; design: time infinity, route oral, dose 3 mg/kg; details: in vivo
[17] = Clearance in human liver microsomes assessed per mg protein; type: ADME, Microsome; details: read-out: CLH
[18] = Unbound drug level in imiquimod-induced mouse model of skin inflammation at 3 mg/kg, po qd; type: ADME, organism-based; details: in vivo
[19] = Fraction unbound in human plasma; type: ADME, cell-free
[20] = Clearance in Sprague-Dawley rat at 1 mg/kg, iv; type: ADME, organism-based; details: in vivo
Mus musculus [21] = test: Antiinflammatory activity in imiquimod-induced mouse model of skin inflammation assessed as reduction in ear swelling at 30 mg/kg, po qd relative to control; type: functional; design: scale not given: the % may be the effect or the level left
Mus musculus [22] = test: Antiinflammatory activity in imiquimod-induced mouse model of skin inflammation assessed as reduction in IL12 stimulation at 1 mg/kg, po qd; type: functional; design: scale not given: the % may be the effect or the level left
[23] = Renal excretion in rat; type: ADME, Kidney; details: urine, read-out: Drug excretion
[24] = AUC infinity in Sprague-Dawley rat at 30 mg/kg, po using SDD formulation; type: ADME, organism-based; design: time infinity, route oral, dose 30 mg/kg; details: in vivo
[25] = Oral bioavailability in Sprague-Dawley rat at 3 mg/kg using crystalline form of sample; type: ADME, organism-based; details: in vivo
[26] = Oral bioavailability in Sprague-Dawley rat at 30 mg/kg using crystalline form of sample; type: ADME, organism-based; details: in vivo
[27] = Oral bioavailability in Sprague-Dawley rat at 30 mg/kg using SDD formulation; type: ADME, organism-based; details: in vivo
[28] = Apparent permeability in MDCK-II cells; type: ADME, cell-based, Canis lupus familiaris; details: dog
[29] = Oral bioavailability in Sprague-Dawley rat at 3 mg/kg using SDD formulation; type: ADME, organism-based; details: in vivo
Mus musculus [30] = test: Antiinflammatory activity in imiquimod-induced mouse model of skin inflammation assessed as reduction in ear swelling at 3 mg/kg, po qd relative to control; type: functional; design: scale not given: the % may be the effect or the level left
Mus musculus [31] = test: Antiinflammatory activity in imiquimod-induced mouse model of skin inflammation assessed as reduction in ear swelling at 1 mg/kg, po qd; type: functional, organism-based
[32] = AUC infinity in Sprague-Dawley rat at 1 mg/kg, iv; type: ADME, organism-based; design: time infinity, route intravenous, dose 1 mg/kg; details: in vivo

Cn1cc(-c2cn3nccc3c(-c3cnn([C@]4(CC#N)C[C@@H](C#N)C4)c3)n2)cn1 [ROPSACITINIB]
pKa [1]: < 1.7
Drug uptake(free) [2]: 14.5 nM
Drug uptake(free) [3]: 225 nM
Cmax [4]: 369 ng/mL
Drug uptake(free) [5]: 668 nM
dose excreted [6]: 0.9%
Vd [7]: 1.1 L/kg
fraction unbound [8]: 0.82
Cmax [9]: 2780 ng/mL
solubility thermodynamic [10]: 0.8 µM (≈ 0.307 µg/mL)
Activity (Mus musculus [11]): 98%
logD (physchem): 1.7
PPB [12]: 38%
Activity (Mus musculus [13]): 34%
Activity (Mus musculus [14]): 77%
Activity (Mus musculus [15]): 94%
AUC(0-inf) [16]: 2390 ng·h/mL
microsomal CLint [17]: < 8 µL/min/mg
Drug uptake(free) [18]: 45.7 nM
Fu [19]: 0.38
clearance [20]: 12 mL/min/kg
Activity (Mus musculus [21]): 46.2%
Activity (Mus musculus [22]): 51%
dose excreted [23]: 1.3%
AUC(0-inf) [24]: 25900 ng·h/mL
bioavailability [25]: 15%
bioavailability [26]: 8%
bioavailability [27]: 63%
Papp [28]: 17 ×10⁻⁶ cm/s
bioavailability [29]: 58%
Activity (Mus musculus [30]): 31.3%
Activity (Mus musculus [31]): inactive
AUC(0-inf) [32]: 1380 ng·h/mL
